Patent publication US10800792B2, “Inhibitors of Bruton's tyrosine kinase and method of their use” (JANSSEN PHARMACEUTICA NV, priority 2015, dated 2020)

Molecular target: unphosphorylated-BTK kinase domain (UP-BTK), GST-tagged human BTK (389-659aa) (Homo sapiens (Human), UniProt Q06187)
Test: BTK kinase Lanthascreen binding assay
Details: Lanthascreen tracer competition, 60 minutes incubation; pIC50 = negative log of the IC50 in molar
Summary of the method: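 Tracer-displacement binding assay against the non-phosphorylated enzyme, read by Lanthascreen. Reported: pIC50.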

Chain of unphosphorylated-BTK kinase domain (UP-BTK), GST-tagged human BTK (389-659aa) (Q06187 389-659): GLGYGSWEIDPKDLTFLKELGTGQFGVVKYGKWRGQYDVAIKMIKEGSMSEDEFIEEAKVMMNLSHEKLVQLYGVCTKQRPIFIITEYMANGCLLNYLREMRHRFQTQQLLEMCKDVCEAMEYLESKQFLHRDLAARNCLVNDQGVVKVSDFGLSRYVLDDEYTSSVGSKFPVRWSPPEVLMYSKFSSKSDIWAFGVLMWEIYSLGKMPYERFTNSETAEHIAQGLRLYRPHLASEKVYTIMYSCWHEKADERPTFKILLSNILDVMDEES

| SMILES | BTK_I_binding pIC50 |
| --- | --- |
| C=CC(=O)N1CCC[C@@H](NC(=O)c2sc3nccc4c3c2NC(=O)N4c2ccc(C)c(C(F)(F)F)c2)C1 [Example 607, (R)—N-(1-Acryloylpiperidin-3-yl)-5-(4-methyl-3-(trifluoromethyl)phenyl)-4-oxo-4,5-dihydro-3H-1-thia-3,5,8-triazaacenaphthylene-2-carboxamide] | 6.2 |
| CC(=O)N1CCC[C@@H](NC(=O)c2sc3nccc4c3c2NC(=O)N4c2ccc(Oc3cccnn3)cc2C)C1 [Example 810, (R)—N-(1-Acetylpiperidin-3-yl)-5-(2-methyl-4-(pyridazin-3-yloxy)phenyl)-4-oxo-4,5-dihydro-3H-1-thia-3,5,8-triazaacenaphthylene-2-carboxamide] | <6 |
| Cc1cc(Oc2ccccc2)ccc1N1C(=O)Nc2c(C(=O)N[C@H]3CCCN(C#N)C3)sc3nccc1c23 [Example 887, (S)—N-(1-Cyanopiperidin-3-yl)-5-(2-methyl-4-phenoxyphenyl)-4-oxo-4,5-dihydro-3H-1-thia-3,5,8-triazaacenaphthylene-2-carboxamide] | 7.0 |
| C=CC(=O)N1CCC[C@@H](NC(=O)c2sc3nccc4c3c2NC(=O)N4c2ccc(Oc3cccnc3)cc2)C1 [Example 774, (R)—N-(1-Acryloylpiperidin-3-yl)-4-oxo-5-(4-(pyridin-3-yloxy)phenyl)-4,5-dihydro-3H-1-thia-3,5,8-triazaacenaphthylene-2-carboxamide] | 7.9 |
| O=C(N[C@@H]1CCCNC1)c1sc2nccc3c2c1NC(=O)N3c1cccc(C2CCC2)c1 [Example 603, (R)-5-(3-Cyclobutylphenyl)-4-oxo-N-(piperidin-3-yl)-4,5-dihydro-3H-1-thia-3,5,8-triazaacenaphthylene-2-carboxamide] | 6.3 |
| C=CC(=O)N1CCC[C@@H](NC(=O)c2sc3nccc4c3c2NC(=O)N4c2ccc(OC3CCC3)nc2C)C1 [Example 704, (R)—N-(1-Acryloylpiperidin-3-yl)-5-(6-cyclobutoxy-2-methylpyridin-3-yl)-4-oxo-4,5-dihydro-3H-1-thia-3,5,8-triazaacenaphthylene-2-carboxamide] | 6.6 |
| C=CC(=O)N1CC[C@@H](NC(=O)c2sc3nccc4c3c2NC(=O)N4c2ccc(Oc3ccccn3)cc2)C1 [Example 881, (R)—N-(1-Acryloylpyrrolidin-3-yl)-4-oxo-5-(4-(pyridin-2-yloxy)phenyl)-4,5-dihydro-3H-1-thia-3,5,8-triazaacenaphthylene-2-carboxamide] | 7.1 |
| C=CC(=O)N1CCC[C@@H](NC(=O)c2sc3nccc4c3c2NC(=O)N4c2cnc(OC3CCCC3)cc2C)C1 (single isomer, unassigned) [Example 769, (R)—N-(1-Acryloylpiperidin-3-yl)-5-(*R)-(6-(cyclopentyloxy)-4-methylpyridin-3-yl)-4-oxo-4,5-dihydro-3H-1-thia-3,5,8-triazaacenaphthylene-2-carboxamide] | 6.2 |
| C=CC(=O)N1CCC(Nc2sc3nccc4c3c2NC(=O)N4c2ccc(Oc3ccccc3)cc2C)CC1 [Example 606, 2-((1-Acryloylpiperidin-4-yl)amino)-5-(2-methyl-4-phenoxyphenyl)-3H-1-thia-3,5,8-triazaacenaphthylen-4(5H)-one] | 6.2 |

Same assay, conditions: pIC50 = negative log of the IC50 in molar; 60 minutes incubation, 50 nM Tracer 236

| SMILES | BTK_I_binding pIC50 |
| --- | --- |
| Cc1cc(Oc2ccccc2)ccc1N1C(=O)Nc2c(C(=O)N[C@@H]3CCCN(C(=O)CN(C)C)C3)sc3nccc1c23 [Example 78, (R)—N-(1-(2-(Dimethylamino)acetyl)piperidin-3-yl)-5-(2-methyl-4-phenoxyphenyl)-4-oxo-4,5-dihydro-3H-1-thia-3,5,8-triazaacenaphthylene-2-carboxamide] | 7.3 |
| C=CC(=O)N1CCC[C@@H](NC(=O)c2sc3nccc4c3c2NC(=O)N4c2ccc(Oc3c(F)cccc3F)cc2C)C1 [Example 64, (R)—N-(1-Acryloylpiperidin-3-yl)-5-(4-(2,6-difluorophenoxy)-2-methylphenyl)-4-oxo-4,5-dihydro-3H-1-thia-3,5,8-triazaacenaphthylene-2-carboxamide] | 7.6 |
| Cc1cc(Oc2ccccc2)ccc1N1C(=O)Nc2c(C(=O)N[C@@H]3CCCN(C4CC4)C3)sc3nccc1c23 [Example 213, (R)—N-(1-Cyclopropylpiperidin-3-yl)-5-(2-methyl-4-phenoxyphenyl)-4-oxo-4,5-dihydro-3H-1-thia-3,5,8-triazaacenaphthylene-2-carboxamide] | 6.5 |
| Cc1cc(Oc2ccccc2)ccc1N1C(=O)Nc2c(C(=O)NC3CCN(C)CC3C)sc3nccc1c23 (centres unmarked) [Example 165, N-(1,3-Dimethylpiperidin-4-yl)-5-(2-methyl-4-phenoxyphenyl)-4-oxo-4,5-dihydro-3H-1-thia-3,5,8-triazaacenaphthylene-2-carboxamide] | 6.6 |
| Cc1cc(Oc2ccccc2)ccc1N1C(=O)Nc2c(C(=O)N[C@H]3CNC[C@H](O)C3)sc3nccc1c23 [Example 179, N-((3R,5R)-5-Hydroxypiperidin-3-yl)-5-(2-methyl-4-phenoxyphenyl)-4-oxo-4,5-dihydro-3H-1-thia-3,5,8-triazaacenaphthylene-2-carboxamide] | 7.0 |
| CCc1ccccc1Oc1ccc(N2C(=O)Nc3c(C(=O)N[C@@H]4CCCN(C)C4)sc4nccc2c34)c(C)c1 [Example 170, (R)-5-(4-(2-Ethylphenoxy)-2-methylphenyl)-N-(1-methylpiperidin-3-yl)-4-oxo-4,5-dihydro-3H-1-thia-3,5,8-triazaacenaphthylene-2-carboxamide] | 7.0 |
| Cc1cc(Oc2ccccc2)ccc1N1C(=O)Nc2c(C(=O)N[C@H]3CCOC3)sc3nccc1c23 [Example 90, (S)-5-(2-Methyl-4-phenoxyphenyl)-4-oxo-N-(tetrahydrofuran-3-yl)-4,5-dihydro-3H-1-thia-3,5,8-triazaacenaphthylene-2-carboxamide] | 7.5 |
| Cc1cc(Oc2ccccc2)cc(F)c1N1C(=O)Nc2c(C(=O)N[C@@H]3CCCN(C)C3)sc3nccc1c23 [Example 222, (R)-5-(2-Fluoro-6-methyl-4-phenoxyphenyl)-N-(1-methylpiperidin-3-yl)-4-oxo-4,5-dihydro-3H-1-thia-3,5,8-triazaacenaphthylene-2-carboxamide] | 6.7 |
| C=CC(=O)N1CCC[C@@H](NC(=O)c2sc3nccc4c3c2NC(=O)N4c2ccc(S(F)(F)(F)(F)F)cc2C)C1 [Example 83, (R)—N-(1-Acryloylpiperidin-3-yl)-5-(2-methyl-4-(pentafluorothio)phenyl)-4-oxo-4,5-dihydro-3H-1-thia-3,5,8-triazaacenaphthylene-2-carboxamide] | 6.8 |

Same assay, conditions: pIC50 = negative log of the IC50 in molar; 60 minutes incubation, 50 nM Tracer 236; read-out: BTK_I_binding pIC50 (converted)

| SMILES | IC50 |
| --- | --- |
| CCOC(C)(C)C=C(C#N)C(=O)N1CCC[C@@H](NC(=O)c2sc3nccc4c3c2NC(=O)N4c2ccc(Oc3ccccc3)cc2C)C1 (mixture of isomers) [Example 29, (R,EZ)—N-(1-(2-Cyano-4-ethoxy-4-methylpent-2-enoyl)piperidin-3-yl)-5-(2-methyl-4-phenoxyphenyl)-4-oxo-4,5-dihydro-3H-1-thia-3,5,8-triazaacenaphthylene-2-carboxamide] | 50.1 nM |

Same assay, conditions: unphosphorylated-BTK kinase domain, 50 nM Tracer 236, 60 minutes; pIC50 = negative log of the IC50 in molar

| SMILES | BTK_I_binding pIC50 |
| --- | --- |
| Cc1cc(Oc2ccccc2)ccc1N1C(=O)Nc2c(C(=O)N[C@H]3CCCCN(Cc4ccccc4)C3=O)sc3nccc1c23 [Example 309, (S)—N-(1-Benzyl-2-oxoazepan-3-yl)-5-(2-methyl-4-phenoxyphenyl)-4-oxo-4,5-dihydro-3H-1-thia-3,5,8-triazaacenaphthylene-2-carboxamide] | 6.0 |
| Cc1cc(Oc2ccccc2)ccc1N1C(=O)Nc2c(C(=O)NCCN3CCOC[C@@H]3C)sc3nccc1c23 [Example 291, (S)-5-(2-Methyl-4-phenoxyphenyl)-N-(2-(3-methylmorpholino)ethyl)-4-oxo-4,5-dihydro-3H-1-thia-3,5,8-triazaacenaphthylene-2-carboxamide] | 6.1 |
| Cc1cccc(-c2cccc(N3C(=O)Nc4c(C(=O)N[C@@H]5CCCNC5)sc5nccc3c45)c2)c1 [Example 553, (R)-5-(3′-Methyl-[1,1′-biphenyl]-3-yl)-4-oxo-N-(piperidin-3-yl)-4,5-dihydro-3H-1-thia-3,5,8-triazaacenaphthylene-2-carboxamide] | 6.8 |
| Cc1cc(Oc2ccccc2)ccc1N1C(=O)Nc2c(C(=O)N[C@H]3CCNC(C)C3)sc3nccc1c23 (single isomer, unassigned) [Example 432, 5-(*S)-(2-Methyl-4-phenoxyphenyl)-N-((4*S)-2-methylpiperidin-4-yl)-4-oxo-4,5-dihydro-3H-1-thia-3,5,8-triazaacenaphthylene-2-carboxamide] | 7.0 |

Same assay, conditions: unphosphorylated-BTK kinase domain, 60 minutes incubation, 50 nM Tracer 236; pIC50 = negative log of the IC50 in molar

| SMILES | BTK_I_binding pIC50 |
| --- | --- |
| Cc1c(Oc2ccccc2)cccc1N1C(=O)Nc2c(C(=O)N[C@H]3CCCN(C(=O)/C(C#N)=C/C4CC4)C3)sc3nccc1c23 [Example 957, (S,E)-N-(1-(2-Cyano-3-cyclopropylacryloyl)piperidin-3-yl)-5-(2-methyl-3-phenoxyphenyl)-4-oxo-4,5-dihydro-3H-1-thia-3,5,8-triazaacenaphthylene-2-carboxamide] | <5 |
| CN1CC[C@@H](NC(=O)c2sc3nccc4c3c2NC(=O)N4c2ccc(Oc3ccccc3)cc2)C1 [Example 910, (R)—N-(1-Methylpyrrolidin-3-yl)-4-oxo-5-(4-phenoxyphenyl)-4,5-dihydro-3H-1-thia-3,5,8-triazaacenaphthylene-2-carboxamide] | 6.7 |
| O=C(N[C@H]1CCN(Cc2ccccc2)C1)c1sc2nccc3c2c1NC(=O)N3c1ccc(Oc2ccccc2)cc1 [Example 945, (S)—N-(1-Benzylpyrrolidin-3-yl)-4-oxo-5-(4-phenoxyphenyl)-4,5-dihydro-3H-1-thia-3,5,8-triazaacenaphthylene-2-carboxamide] | 5.5 |
